Measurements published in US7326786B2, “Thiazolinone unsubstituted quinolines” (Hoffmann-La Roche Inc., priority 2004, dated 2008).

Biological target: T1, recombinant human CDK1/Cyclin B complex (Homo sapiens, UniProt P06493)
T1 construct: made in house; host or cells: High Five insect cells (baculovirus) for CDK1/GST-cyclin B; E. coli M15 for the Rb substrate
Assay: CDK1/Cyclin B kinase assay (FlashPlate or HTRF)
Assay type: biochemical
Details: Rb protein substrate, Ki=IC50/(1+[S]/Km)
Experimental: To determine inhibition of CDK1 activity, either FlashPlate™ (NEN™-Life Science Products) assay or HTRF Homogeneous Time Resolved Fluorescence assay was performed. Both types of kinase assays were carried out using recombinant human CDK1/Cyclin B complex. GST-cyclinB (GST-cycB) and CDK1 cDNA clones in baculovirus vectors were provided by Dr. W. Harper at the Baylor College of Medicine, Houston, Tex. Proteins were co-expressed in High Five™ insect cells and the complex was purified on glutathione Sepharose resin (Pharmacia, Piscataway, N.J.) as previously described (Harper, J. W. et al. Cell 1993, 75, 805-816). A 6×-Histidine tagged truncated form of retinoblastoma (Rb) protein (amino acid 386-928) was used as the substrate for the CDK1/Cyclin B assay (the expression plasmid was provided by Dr. Veronica Sullivan, Department of Molecular Virology, Roche Research Centre, Welwyn Garden City, United Kingdom). The Rb protein is a natural substrate for phosphorylation by CDK1 (see Herwig and Strauss Eur. J. Biochem. Vol. 246 (1997) pp. 581-601 and the references cited therein). The expression of the 62Kd protein was under the control of an IPTG inducible promoter in an M15 E. coli strain. Cells were lysed by sonication and purification was carried out by binding lysates at pH 8.0 to a Ni-chelated agarose column pretreated with 1 mM imidazole. The resin was then washed several times with incrementally decreasing pH buffers to pH 6.0, and eluted with 500 mM imidazole. Eluted protein was dialysed against 20 mM HEPES [4-(2-hydroxyethyl)-1-piperazineethanesulfonic acid, sodium salt] pH 7.5, 30% glycerol, 200 mM NaCl, and 1 mM DTT (dithiothreitol). Purified Rb fusion protein stocks were quantitated for protein concentration, aliquoted, and stored at −70° C.
For the FlashPlate kinase asasy, 96-well FlashPlates were coated with Rb protein at 10 μg/ml, using 100 μl per well. Plates were incubated at 4° C. overnight or at room temperature for 3 hours on a shaker. To control for nonspecific phosphorylation, one row of wells was coated with 100 μl/well coating buffer (20 mM HEPES, 0.2 M NaCl). Plates were then washed twice with wash buffer (0.01% Tween 20 in phosphate-buffered saline). Compounds to be tested (“test compounds”) were added to the wells at 5× final concentration. Reactions were initiated by immediate addition of 40 μl reaction mix (25 mM HEPES, 20 mM MgCl2, 0.002% Tween 20, 2 mM DTT, 1 μM ATP, 4 nM 33P-ATP) and a sufficient amount of enzyme to give counts that were at least 10-fold above background. Plates were incubated at room temperature on a shaker for 30 minutes. Plates were washed four times with the wash buffer, sealed, and counted on the TopCount scintillation counter (Packard Instrument Co., Downers Grove, Ill.]. The percent inhibition of Rb phosphorylation, which is a measure of the inhibition of CDK activity, was determined according to the following formula:
[formula] where “test compound” refers to the average counts per minute of the test duplicates, “nonspecific” refers to the average counts per minute when no CDK1/Cyclin B, etc., was added, and “total” refers to the average counts per minute when no compound was added. The IC50 value is the concentration of test compound that reduces by 50% the protein-kinase induced incorporation of the radiolabel under the test conditions described. The value of the inhibitor constant Ki is calculated by the following: Ki=IC50/(1+[S]/Km), where [S] is the ATP concentration and Km is Michaelis constant.
The Homogeneous Time Resolved Fluorescence (HTRF) kinase assay was carried out in 96-well polypropylene plates (BD Biosciences, Bedford, Mass.). Test compounds were first dissolved in DMSO, and then diluted in kinase assay buffer 1 (25 mM HEPES, pH7.0, 8 mM MgCl2, 1.5 mM DTT, and 162 μM ATP) with DMSO concentration at 15%. The CDK1/Cyclin B enzyme was diluted in kinase assay buffer 2 (25 mM HEPES, pH 7.0, 8 mM MgCl2, 0.003% Tween 20, 0.045% BSA, 1.5 mM DTT, and 0.338 μM Rb protein). […]

T1 sequence (P06493 whole entry): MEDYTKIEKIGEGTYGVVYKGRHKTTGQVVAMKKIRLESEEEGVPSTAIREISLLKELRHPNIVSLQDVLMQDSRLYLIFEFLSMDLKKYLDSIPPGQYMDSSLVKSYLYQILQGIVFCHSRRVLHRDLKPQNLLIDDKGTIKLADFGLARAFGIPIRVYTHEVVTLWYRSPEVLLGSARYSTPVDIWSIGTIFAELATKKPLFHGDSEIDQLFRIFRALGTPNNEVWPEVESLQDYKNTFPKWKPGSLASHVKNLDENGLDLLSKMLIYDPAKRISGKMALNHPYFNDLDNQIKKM
T1 sequence (P14635 whole entry partner): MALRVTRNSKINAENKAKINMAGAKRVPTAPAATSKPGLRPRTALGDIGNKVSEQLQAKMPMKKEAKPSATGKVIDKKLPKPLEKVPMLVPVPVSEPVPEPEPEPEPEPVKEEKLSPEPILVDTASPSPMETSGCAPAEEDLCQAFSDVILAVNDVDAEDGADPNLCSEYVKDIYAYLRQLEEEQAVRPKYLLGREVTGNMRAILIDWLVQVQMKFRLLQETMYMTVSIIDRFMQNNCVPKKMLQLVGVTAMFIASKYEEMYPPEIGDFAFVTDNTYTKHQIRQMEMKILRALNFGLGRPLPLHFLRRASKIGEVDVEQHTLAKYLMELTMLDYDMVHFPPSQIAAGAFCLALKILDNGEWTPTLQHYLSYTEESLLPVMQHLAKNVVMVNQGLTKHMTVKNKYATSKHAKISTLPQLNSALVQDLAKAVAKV

| SMILES | Ki [nM] |
| --- | --- |
| COc1ccccc1CNC1=NC(=O)/C(=C/c2ccc3ncccc3c2)S1 [Example 10, 2-(2-Methoxy-benzylamino)-5-[1-quinolin-6-yl-meth-(Z)-ylidene]-thiazol-4-one] | 148 |
| COc1ccc(OC)c(CCNC2=NC(=O)/C(=C/c3ccc4ncccc4c3)S2)c1 [Example 5, 2-[2-(2,5-Dimethoxy-phenyl)-ethylamino]-5-[1-quinolin-6-yl-meth-(Z)-ylidene]-thiazol-4-one] | 838 |
| O=C1N=C(NC(CO)c2cccs2)S/C1=C\c1ccc2ncccc2c1 (stereo not drawn) [Example 25, 2-(2-Hydroxy-1-thiophen-2-yl-ethylamino)-5-[1-quinolin-6-yl-meth-(Z)-ylidene]-thiazol-4-one] | 596 |
| O=C1N=C(N[C@@H]2c3ccccc3C[C@@H]2O)S/C1=C\c1ccc2ncccc2c1 [Example 30, 2-((1R,2S)-2-Hydroxy-indan-1-ylamino)-5-[1-quinolin-6-yl-meth-(Z)-ylidene]-thiazol-4-one] | 3000 |

Second part, the molecule after the results:

| Ki [nM] | SMILES |
| --- | --- |
| 3300 | O=C1N=C(NCC(c2ccccc2)N2CCOCC2)S/C1=C\c1ccc2ncccc2c1 (stereo not drawn) [Example 35, 2-(2-Morpholin-4-yl-2-phenyl-ethylamino)-5-[1-quinolin-6-yl-meth-(Z)-ylidene]-thiazol-4-one] |
| 604 | O=C1N=C(N[C@@H](CO)Cc2ccccc2)S/C1=C\c1ccc2ncccc2c1 [Example 20, 2-((R)-1-Hydroxymethyl-2-phenyl-ethylamino)-5-[1-quinolin-6-yl-meth-(Z)-ylidene]-thiazol-4-one] |
